The assay concerns the target T1, TPM3-TRKA fusion protein (Homo sapiens, UniProt P04629).
T1 construct: The resulted chimeric proteins always retain the kinase domain of TRK proteins; TPM3 (fusion partner, N-terminal part of tropomyosin alpha-3, P06753); endogenous in cells; host or cells: KM12 colon cancer cells; the other entry of the earlier key: TPM3 (P06753, Tropomyosin alpha-3 chain)
In words: TPM3-TRKA fusion protein levels in KM12 cells (Western blot). The note with it: for percent degradation of TPM3-TRKA protein at 0.01 µM: 16 h, TPM3-TRKA degradation in KM12 cells at 10 nM compound, category of percentage degradation, read-out: Degradation (at 10 nM). The class given is cell-based. The procedure: KM12 cells were treated with DMSO or indicated compounds at 100 nM for 16 hours.
KM12 cells were treated with DMSO or indicated compounds at 0. 1 nM, 1 nM or 10 nM for 16 hours.
KM12 cells were treated with DMSO or indicated compounds at various concentrations for 16 hours.
KM12 cells were treated with DMSO or indicated compounds at various concentrations for 4 hours.
KM12 cells (a cancer model comprising a colon cancer cell line) were treated with DMSO or indicated compounds at various concentrations for 4 hours.
KM12 cells were treated with heterobifunctional compounds or their corresponding control compounds at 10 nM or 100 nM for 16 hours.
KM12 cells were treated with heterobifunctional compounds or their corresponding control compounds at 0.4-30 nM for 8-16 hours. […] Cells were authenticated using the short tandem repeat (STR) assays. […] Stable cell lines were established by lentivirus transduction, selected and maintained in medium containing 1 μg/mL puromycin (Beyotime Biotechnology).
Cultured cells were washed with cold PBS once and lysed in cold RIPA buffer supplemented with protease inhibitors and phosphatase inhibitors (Beyotime Biotechnology). The solutions were then incubated at 4° C. for 30 minutes with gentle agitation to fully lyse cells. For tumor tissues, tumors were cut into small pieces, milled with cold RIPA buffer using a mechanical homogenizer and lysed for 1 hour at 4° C. Cell lysates were centrifuged at 13,000 rpm for 10 minutes at 4° C. and pellets were discarded. Total protein concentrations in the lysates were determined by BCA assays (Beyotime Biotechnology). Cell lysates were mixed with Laemmli loading buffer to 1× and heated at 99° C. for 5 min. Proteins were resolved on SDS-PAGE and visualized by chemiluminescence. Images were taken by a ChemiDoc MP Imaging system (Bio-Rad). Protein bands were quantitated using the software provided by Bio-Rad.

The structures appear in SMILES notation.

T1 sequence (P04629 with tags, fused parts or gaps): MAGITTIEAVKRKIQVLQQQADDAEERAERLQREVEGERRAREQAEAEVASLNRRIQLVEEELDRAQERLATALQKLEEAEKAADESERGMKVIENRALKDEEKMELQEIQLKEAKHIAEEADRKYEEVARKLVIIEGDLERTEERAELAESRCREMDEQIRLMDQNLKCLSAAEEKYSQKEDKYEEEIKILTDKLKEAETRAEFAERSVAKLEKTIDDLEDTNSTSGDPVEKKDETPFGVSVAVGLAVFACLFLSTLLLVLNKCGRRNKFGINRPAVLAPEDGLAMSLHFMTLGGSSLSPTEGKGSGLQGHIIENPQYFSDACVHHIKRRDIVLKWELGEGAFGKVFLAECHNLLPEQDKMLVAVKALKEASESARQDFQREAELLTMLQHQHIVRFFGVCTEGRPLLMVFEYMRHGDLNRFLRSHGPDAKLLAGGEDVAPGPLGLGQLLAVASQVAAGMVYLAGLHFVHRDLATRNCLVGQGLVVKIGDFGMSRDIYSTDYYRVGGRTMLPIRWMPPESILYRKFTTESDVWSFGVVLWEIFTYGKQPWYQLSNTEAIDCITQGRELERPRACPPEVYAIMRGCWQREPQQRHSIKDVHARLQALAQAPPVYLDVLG

Consider `O=C1CCC(N2C(=O)c3cccc(NCCCCCCC(=O)N4CCN(c5cccc(-c6cnc7ccc(N8CCC[C@@H]8c8cccc(F)c8)nn67)n5)CC4)c3C2=O)C(=O)N1` (stereo partly drawn) [CPD-009, 2-(2,6-Dioxopiperidin-3-yl)-4-((7-(4-(6-(6-((R)-2-(3-fluorophenyl)pyrrolidin-1-yl)imidazo[1,2-b]pyridazin-3-yl)pyridin-2-yl)piperazin-1-yl)-7-oxoheptyl)amino) isoindoline-1,3-dione], for which the percent degradation of TPM3-TRKA protein at 0.01 µM fell in the range of 50 to 80%.

Turning to `O=C1CCC(N2C(=O)c3cccc(NCCCC(=O)N4CCN(c5cccc(-c6cnc7ccc(N8CCC[C@@H]8c8cccc(F)c8)nn67)n5)CC4)c3C2=O)C(=O)N1` (stereo partly drawn) [CPD-013, 2-(2,6-Dioxopiperidin-3-yl)-4-((4-(4-(6-(6-((R)-2-(3-fluorophenyl)pyrrolidin-1-yl)imidazo[1,2-b]pyridazin-3-yl)pyridin-2-yl)piperazin-1-yl)-4-oxobutyl)amino) isoindoline-1,3-dione], the percent degradation of TPM3-TRKA protein at 0.01 µM is above 80%.

On to `O=C1CCC(N2C(=O)c3cccc(NCCCCC(=O)N4CCN(c5cccc(-c6cnc7ccc(N8CCC[C@@H]8c8cccc(F)c8)nn67)n5)CC4)c3C2=O)C(=O)N1` (stereo partly drawn) [CPD-014, 2-(2,6-Dioxopiperidin-3-yl)-4-((5-(4-(6-(6-((R)-2-(3-fluorophenyl)pyrrolidin-1-yl)imidazo[1,2-b]pyridazin-3-yl)pyridin-2-yl)piperazin-1-yl)-5-oxopentyl)amino) isoindoline-1,3-dione], for which the percent degradation of TPM3-TRKA protein at 0.01 µM is above 80%.

As to `O=C1CCC(N2C(=O)c3cccc(NCCCCCC(=O)N4CCN(c5cccc(-c6cnc7ccc(N8CCC[C@@H]8c8cccc(F)c8)nn67)n5)CC4)c3C2=O)C(=O)N1` (stereo partly drawn) [CPD-015, 2-(2,6-Dioxopiperidin-3-yl)-4-((6-(4-(6-(6-((R)-2-(3-fluorophenyl)pyrrolidin-1-yl)imidazo[1,2-b]pyridazin-3-yl)pyridin-2˜yl)piperazin-1-yl)-6-oxohexyl)amino) isoindoline-1,3-dione], the percent degradation of TPM3-TRKA protein at 0.01 µM was above 80%.

`Cc1ncsc1-c1ccc(CNC(=O)[C@@H]2C[C@@H](O)CN2C(=O)[C@@H](NC(=O)CCCCCCCCC(=O)N2CCN(c3cccc(-c4cnc5ccc(N6CCC[C@@H]6c6cccc(F)c6)nn45)n3)CC2)C(C)(C)C)cc1` [CPD-017, (28,4R)-1-((S)-2-(10-(4-(6-(6-((R)-2-(3-Fluorophenyl)pyrrolidin-1-yl)imidazo[1,2-b]pyridazin-3-yl)pyridin-2-yl)piperazin-1-yl)-10-oxodecanamido)-3,3-dimethylbutanoyl)-4-hydroxy-N-(4-(4-methylthiazol-S-yl)benzyl)pyrrolidine-2-carboxamide]: the percent degradation of TPM3-TRKA protein at 0.01 µM is below 50%.

As for `O=C1CCC(N2C(=O)c3cccc(NCCOCCOCCOCCOCCC(=O)N4CCN(c5cccc(-c6cnc7ccc(N8CCC[C@@H]8c8cccc(F)c8)nn67)n5)CC4)c3C2=O)C(=O)N1` (stereo partly drawn) [CPD-021, 2-(2,6-Dioxopiperidin-3-yl)-4-((15-(4-(6-(6-((R)-2-(3-fluorophenyl)pyrrolidin-1-yl)imidazo[1,2-b]pyridazin-3-yl)pyridin-2-yl)piperazin-1-yl)-15-oxo-3,6,9,12-tetraoxapentadecyl)amino) isoindoline-1,3-dione], the percent degradation of TPM3-TRKA protein at 0.01 µM is above 80%.

Consider `Cc1ncsc1-c1ccc(CNC(=O)[C@@H]2C[C@@H](O)CN2C(=O)[C@@H](NC(=O)CCCCCCCCCC(=O)N2CCN(c3cccc(-c4cnc5ccc(N6CCC[C@@H]6c6cccc(F)c6)nn45)n3)CC2)C(C)(C)C)cc1` [CPD-022, (25,4R)-1-((S)-2-(11-(4-(6-(6-((R)-2-(3-Fluorophenyl)pyrrolidin-1-yl)imidazo[1,2-b]pyridazin-3-yl)pyridin-2-yl)piperazin-1-yl)-11-oxoundecanamido)-3,3-dimethylbutanoyl)-4-hydroxy-N-(4-(4-methylthiazol-5-yl)benzyl)pyrrolidine-2-carboxamide], for which the percent degradation of TPM3-TRKA protein at 0.01 µM was in the range of 50 to 80%.

`O=C1CCC(N2C(=O)c3cccc(NCC(=O)N4CCN(c5cccc(-c6cnc7ccc(N8CCC[C@@H]8c8cccc(F)c8)nn67)n5)CC4)c3C2=O)C(=O)N1` (stereo partly drawn) [CPD-023, 2-(2,6-Dioxopiperidin-3-yl)-4-((2˜ (4-(6-(6-((R)-2-(3-fluorophenyl)pyrrolidin-1-yl)imidazo[1,2-b]pyridazin-3-yl)pyridin-2-yl)piperazin-1-yl)-2-oxoethyl)amino) isoindoline-1,3-dione]: the percent degradation of TPM3-TRKA protein at 0.01 µM is above 80%.

`O=C1CCC(N2C(=O)c3cccc(NCCCCCCCC(=O)N4CCN(c5cccc(-c6cnc7ccc(N8CCC[C@@H]8c8cccc(F)c8)nn67)n5)CC4)c3C2=O)C(=O)N1` (stereo partly drawn) [CPD-024, 2-(2,6-Dioxopiperidin-3-yl)-4-((8-(4-(6-(6-((R)-2-(3-fluorophenyl)pyrrolidin-1-yl)imidazo[1,2-b]pyridazin-3-yl)pyridin-2-yl)piperazin-1-yl)-8-oxooctyl)amino) isoindoline-1,3-dione]: the percent degradation of TPM3-TRKA protein at 0.01 µM was above 80%.

For `O=C1CCC(N2C(=O)c3cccc(NCCOCCOCCOCCOCCOCCC(=O)N4CCN(c5cccc(-c6cnc7ccc(N8CCC[C@@H]8c8cccc(F)c8)nn67)n5)CC4)c3C2=O)C(=O)N1` (stereo partly drawn) [CPD-025, 2-(2,6-Dioxopiperidin-3-yl)-4-((18-(4-(6-(6-((R)-2-(3-fluorophenyl)pyrrolidin-1-yl)imidazo[1,2-b]pyridazin-3-yl)pyridin-2-yl)piperazin-1-yl)-18-oxo-3,6,9,12,15-pentaoxaoctadecyl)amino) isoindoline-1,3-dione], the percent degradation of TPM3-TRKA protein at 0.01 µM was above 80%.

As to `O=C1CCC(N2C(=O)c3cccc(NCCC(=O)N4CCN(c5cccc(-c6cnc7ccc(N8CCC[C@@H]8c8cccc(F)c8)nn67)n5)CC4)c3C2=O)C(=O)N1` (stereo partly drawn) [CPD-026, 2-(2,6-Dioxopiperidin-3-yl)-4-((3-(4-(6-(6-((R)-2-(3-fluorophenyl)pyrrolidin-1-yl)imidazo[1,2-b]pyridazin-3-yl)pyridin-2-yl)piperazin-1-yl)-3-oxopropyl)amino) isoindoline-1,3-dione], the percent degradation of TPM3-TRKA protein at 0.01 µM is 50 to 80%.

As to `O=C1CCC(N2C(=O)c3cccc(NCCOCCC(=O)N4CCN(c5cccc(-c6cnc7ccc(N8CCC[C@@H]8c8cccc(F)c8)nn67)n5)CC4)c3C2=O)C(=O)N1` (stereo partly drawn) [CPD-027, 2-(2,6-Dioxopiperidin-3-yl)-4˜ ((2-(3-(4˜ (6-(6-((R)-2-(3-fluorophenyl)pyrrolidin-1-yl)imidazo[1,2-b]pyridazin-3-yl)pyridin-2-yl)piperazin-1-yl)-3-oxopropoxy)ethyl)amino) isoindoline-1,3-dione], the percent degradation of TPM3-TRKA protein at 0.01 µM was above 80%. In addition, the TPM3-TRKA protein levels entry (KM12 cells, 100 nM, indicated incubation time, Western blot (FIG. 2)) is “rapidly reduced TPM3-TRKA protein levels”.

Regarding `O=C1CCC(N2C(=O)c3cccc(NCCOCCOCCC(=O)N4CCN(c5cccc(-c6cnc7ccc(N8CCC[C@@H]8c8cccc(F)c8)nn67)n5)CC4)c3C2=O)C(=O)N1` (stereo partly drawn) [CPD-028, 2-(2,6-Dioxopiperidin-3-yl)-4-((2-(2-(3-(4-(6-(6-((R)-2-(3-fluorophenyl)pyrrolidin-1-yl)imidazo[1,2-b]pyridazin-3-yl)pyridin-2-yl)piperazin-1-yl)-3-oxopropoxy)ethoxy)ethyl)amino) isoindoline-1,3-dione], the percent degradation of TPM3-TRKA protein at 0.01 µM was above 80%.

Turning to `Cc1ncsc1-c1ccc(CNC(=O)[C@@H]2C[C@@H](O)CN2C(=O)[C@@H](NC(=O)CCCCCCC(=O)N2CCN(c3cccc(-c4cnc5ccc(N6CCC[C@@H]6c6cccc(F)c6)nn45)n3)CC2)C(C)(C)C)cc1` [CPD-029, (25,4R)-1-((S)-2-(8-(4-(6-(6-((R)-2-(3-Fluorophenyl)pyrrolidin-1-yl)imidazo[1,2-b]pyridazin-3-yl)pyridin-2-yl)piperazin-1-yl)-8-oxooctanamido)-3,3-dimethylbutanoyl)-4-hydroxy-N-(4-(4-methylthiazol-5-yl)benzyl)pyrrolidine-2-carboxamide], the percent degradation of TPM3-TRKA protein at 0.01 µM was 50 to 80%.

As for `O=C1CCC(N2C(=O)c3cccc(NCCOCCC(=O)N4CCN(c5ccc(C(=O)Nc6n[nH]c7ccc(Cc8cc(F)cc(F)c8)cc67)c(NC6CCOCC6)c5)CC4)c3C2=O)C(=O)N1` (stereo not shown) [CPD-030, N-(5-(3,5-Difluorobenzyl)-1H-indazol-3-yl)-4-(4-(3-(2-((2-(2,6-dioxopiperidin-3-yl)-1,3-dioxoisoindolin-4-yl)amino)ethoxy)propanoyl)piperazin-1-yl)-2-((tetrahydro-2H-pyran-4-yl)amino)benzamide], the percent degradation of TPM3-TRKA protein at 0.01 µM was above 80%.

The values above are taken from patent US12410171B2, “Tropomyosin receptor kinase (TRK) degradation compounds and methods of use” (Cullgen (Shanghai), Inc., priority 2020, dated 2025).
